According to US20240285586A1, “METHODS FOR TREATING BACTERIAL CELL POPULATIONS” (THE HONG KONG POLYTECHNIC UNIVERSITY, priority 2021, published 2024):
In brackets after ≈: the same amount, converted by molar mass.

What was measured:
[1] = system: S. aureus ATCC29213; test: Minimal inhibitory concentration, S. aureus; format: cell-based; settings: Staphylococcus aureus, 16 hours, Mueller Hinton Broth
Description: (§1) Determination of Minimal Inhibitory Concentrations (MICs).

[2] = system: A. baumannii; test: Starvation-induced tolerance assay, A. baumannii; format: cell-based, Acinetobacter baumannii
Protocol: (§2) Tolerance assay. […] Standard serial dilution and plating on LB agar was performed before and after ampicillin treatment for 4 hrs, 2 days, 4 days and 6 days to determine the fraction of the test population that survived at different time points during the course of treatment.
(§3) Standard serial dilution and plating on LB agar was performed on samples collected every 24 hrs to assess changes in the size of the sub-population that survived during the treatment process.
(§4) Upon reaching the exponential phase, bacteria were washed and re-suspended in saline (0.9% NaCl), and then incubated at 37° C. under constant shaking (250 rpm/min) for 24 hrs. […] Standard serial dilution and plating on LB agar were performed before and after ampicillin treatment for 4 hrs, 1 day, 2 days and 4 days to determine the fraction of the test population that survived at different time points during the course of treatment.

[3] = system: K. pneumoniae; test: Starvation-induced tolerance assay, K. pneumoniae; format: cell-based, Klebsiella pneumoniae
Protocol: as §2, §3, §4

[4] = system: P. aeruginosa; test: Membrane potential assay DiSC3(5), P. aeruginosa; format: cell-based, Pseudomonas aeruginosa; settings: econazole 40 μM, cells starved 24 hrs
Protocol: (§5) Assessment of effect of econazole on membrane potential. Fluorometric measurement of membrane potential of bacterial cells was performed using the voltage-sensitive dye DiSC3(5). The test organisms were first subjected to starvation for 24 hrs and then centrifuged and washed twice with PBS. The cell pellet was resuspended in PBS containing 100 mM of KCl to a final concentration of OD 0.2. The cells were incubated with 1 μM of DiSC3(5) for 5 min under shaking in dark. The cells were treated with econazole (40 μM); a no treatment control was included. The fluorometric measurements were carried out on black polystyrene microtiter plates using a Clariostar Microplate Reader (BMG LABTECH), with excitation wavelength at 610 nm and emission wavelength at 660 nm.

[5] = system: E. coli J53 (mcr-1); test: MIC of colistin in presence and absence of compound, broth dilution; format: cell-based, Escherichia coli; settings: antibiotic resistant E. coli (FIG. 20)
[6] = general statement; cited from earlier work
[7] = system: E. coli BW25113; test: Starvation-induced tolerance assay, wild type E. coli; format: cell-based, Escherichia coli
Protocol: as §2, §3, §4

[8] = system: E. coli tolerant cells; test: Scanning electron microscopy of tolerant cells; format: cell-based, Escherichia coli; settings: for cell morphology under SEM: 24 hours
Protocol: Electron microscopy analysis. E. coli which had been subjected to starvation for 24 hours were treated with econazole alone, ampicillin alone and a combination of econazole and ampicillin for 24 hours, followed by examination under scanning electron microscopy (SEM). Cells treated with saline were included as negative control. Briefly, bacterial cells were fixed in 0.4% polyoxymethylene overnight and then in Osmium tetroxide (OsO4) for 2 hrs, followed by washing for three times with PBS. The cells were then dehydrated using pure ethanol, and infiltrated and embedded in Spurr resin for examination by SEM.

[9] = system: carbapenem resistant E. coli J53 strain which expressed the carbapenemase NDM-1; test: Starvation-induced tolerance assay, carbapenem-resistant E. coli; format: cell-based, Escherichia coli; settings: econazole + sub-lethal dose of meropenem (40 μg/ml), nutrient starvation
Protocol: Upon reaching the exponential phase, bacteria were washed and re-suspended in saline (0.9% NaCl), and then incubated at 37° C. under constant shaking (250 rpm/min) for 24 hrs. […]

[10] = system: S. aureus; test: Membrane potential assay DiSC3(5), S. aureus; format: cell-based, Staphylococcus aureus; settings: econazole 40 μM, cells starved 24 hrs
Protocol: as §5

[11] = system: E. coli BW25113; test: Mouse deep-seated thigh infection model; format: in vivo, Escherichia coli
Protocol: NIH mice were purchased from the Guangdong Center for Experimental Animals, Guangzhou, China. Male mice at ˜6 weeks of age with a weight of ˜20 g were used in the experiments, 6 mice per group. The animals were allowed to acclimate to the housing facility for 5 days. The mice were made neutropenic by administering 150 mg/kg cyclophosphamide 3 days and 1 day before infection. An inoculum of 1×10^6 CFU of E. coli BW25113 was injected into the right thigh of the mouse. At 24 hrs post-infection, the mice in each group received ceftazidime (20 mg/kg), econazole (20 mg/kg) or ceftazidime combining econazole treatment (i.p.) every 12 hrs for 72 hrs randomly. The mice were then euthanized and the infected thighs were aseptically excised and homogenized in PBS; the number of E. coli present in the samples was enumerated by serial dilution, spreading on LB plates, and incubation at 37° C. overnight. The population size of bacteria that survived different treatments was recorded, compared and analyzed by one-way ANOVA and post hoc Tukey test. The data were presented by using the Graph Pad Prism software. All experimental protocols followed the standard operating procedures of the Biosafety level 2 animal facilities approved by the Animal Ethics Committee of The City University of Hong Kong.

[12] = system: E. coli; test: Membrane potential assay DiSC3(5), E. coli; format: cell-based, Escherichia coli; settings: econazole 40 μM, cells starved 24 hrs
Protocol: Membrane potential assay. The transmembrane electrical potential was measured by using a membrane potential-sensitive probe, DiSC3(5). Bacterial population in either the exponential phase (OD600 of 0.2) or under 24 hrs starvation (resuspended in saline) were collected by centrifugation (6000×g, 2 mins), washed twice and re-suspended in PBS (pH 7.4), and then adjusted to OD600 of 0.2. KCl and DiSC3(5) were added until final concentration of 100 mM and 1 μM was respectively reached, followed by incubation at room temperature for 25 mins in the dark to allow the dye to penetrate through the outer membrane and produce a quenching effect. […] The fluorescence reading was monitored by using a Clariostar Microplate Reader (BMG LABTECH) at an excitation wavelength of 622±10 nm and an emission wavelength of 670±10 nm for 10 mins. Upon depolarization, the dye was rapidly released into the medium, resulting in dequenching and facilitating detection fluorometrically. […] The sample preparation method is same as that prior to testing with the Microplate Reader except for the last step. Briefly, cells were washed with PBS three times before confocal observation to remove extracellular DiSC3(5) dye. […] DiSC3(5) was excited by 638 nm laser and fluorescence was detected by HyD detector at emission wavelength 675±25 nm. The images were acquired and analyzed by the Leica Application Suite X (LAS X) software. […]

[13] = system: S. typhimurium; test: Starvation-induced tolerance assay, S. typhimurium; format: cell-based
Protocol: as §2, §3, §4

[14] = system: Gram negative strains; test: Minimal inhibitory concentration, Gram negative strains; format: cell-based; settings: all Gram negative test strains
Description: as §1

[15] = system: S. aureus; test: Starvation-induced tolerance assay, S. aureus; format: cell-based, Staphylococcus aureus
Protocol: as §2, §3, §4

[16] = system: P. aeruginosa; test: Starvation-induced tolerance assay, P. aeruginosa; format: cell-based, Pseudomonas aeruginosa
Protocol: as §2, §3, §4

[17] = system: S. typhimurium PY1; test: Mouse peritonitis infection (tolerance sepsis) model; format: in vivo
Protocol: NIH male mice of about six-weeks-old with body weight of ˜20 g were used, 6 mice per group. The animals were allowed to acclimate to the housing facility for 5 days. The mice were made neutropenic by administering 150 mg/kg cyclophosphamide 3 days and 1 day before infection. Different amounts of S. typhimurium strain PY01 (2.8×10^5 CFU, 7.6×10^5 CFU or 1.5×10^6 CFU) were inoculated into the animals via intraperitoneal injection. The mice were subjected to ceftazidime (20 mg/kg), econazole (20 mg/kg) or ceftazidime combining econazole treatment (i.p.) 24 h after inoculation, at 12 hrs intervals for 72 hrs randomly. The mortality rate of the test mice was recorded every 12 hrs. After 72 h of treatment, live mice were euthanized and subjected to peritoneal washes which involved injection of 2 mL of saline into the intraperitoneal space, followed by abdominal massage. The abdomen was then cut open and 200 μL of peritoneal fluid were collected and serially diluted in saline. A 100 μL portion of each dilution was spread on LB plates, followed by incubation overnight at 37° C. Colonies were counted to determine the bacterial load in the test samples, which were expressed as CFU/ml. Statistical analysis and ethic approval were the same as described above.

With `Clc1ccc(COC(Cn2ccnc2)c2ccc(Cl)cc2Cl)cc1` (stereo not drawn) [econazole] the MIC [1] was 40 µM (≈ 15.3 µg/mL), the “effect of co-administration with ampicillin” value (from here on “effect … with ampicillin”) ([2]; econazole + ampicillin) was “pronounced bactericidal synergistic effect” and the “time to eradication of the entire tolerant sub-population” value ([2]; econazole + ampicillin) was no more than 24 h. The “killing of tolerant cells” value ([2]; econazole alone, 40 μM) was “slight killing effect”, the “effect … with ampicillin” value ([3]; econazole + ampicillin) was “pronounced bactericidal synergistic effect” and the “time to eradication of the entire tolerant sub-population” value ([3]; econazole + ampicillin) was no more than 24 h. The “killing of tolerant cells” value ([3]; econazole alone, 40 μM) was “slight killing effect”, the “effect on PMF (DiSC3(5) fluorescence)” value [4] was “caused dissipation of PMF” and the “effect of co-administration with colistin” value [5] was “bactericidal synergistic effect”. The “toxicity or safety in human” value [6] was “proven safe”, the “time to eradication of the entire tolerant population” value ([7]; econazole 40 μM + ampicillin 10×MIC) was 24 h and the “effect … with ampicillin” value ([7]; econazole + ampicillin, E. coli) was “pronounced bactericidal synergistic effect”. For the same molecule, the “treatment time at which all tolerant cells were killed” value ([7]; econazole + ciprofloxacin (1 μg/ml)) was 24 h, the “size of bacterial population that survived” value ([7]; econazole + ciprofloxacin (1 μg/ml), 4 hrs) was “about 200 CFU/mL” and the “treatment time at which all tolerant cells were killed” value ([7]; econazole + gentamicin (20 μg/ml)) was 24 h. The “size of bacterial population that survived” value ([7]; econazole + gentamicin (20 μg/ml), 4 hrs) was “about 200 CFU/mL”, the “size of the population that survived” value ([7]; econazole alone, 4 hrs) was “about 1.7×10^5 CFU/mL” and the population size ([7]; econazole alone, 24 hrs) was ~1×10^4 CFU/mL. The “cell morphology under SEM” value ([8]; econazole 40 μM + ampicillin 100 μg/ml) was “cell membrane structure was severely damaged”, the “cell morphology under SEM” value ([8]; econazole 40 μM alone) was “rough cell surface, as well as leakage of intracellular material” and the “membrane damage or morphological changes” value ([8]; econazole, exponentially growing cells (data not shown)) was “not found to cause any detectable membrane damage or morphological changes”. For the same molecule, the “effect on the tolerant sub-population” value [9] was “eradicate the tolerant sub-population”, the “effect on PMF (DiSC3(5) fluorescence)” value [10] was “caused dissipation of PMF” and the “eradication of E. coli tolerant cells compared with ceftazidime (20 mg/Kg) alone” value ([11]; econazole 20 mg/kg + ceftazidime 20 mg/Kg i.p. every 12 hrs for 72 hrs, P=0.031) was “significantly more”. The “eradication of E. coli tolerant cells compared with ceftazidime (20 mg/Kg) alone” value ([11]; econazole alone 20 mg/kg i.p. every 12 hrs for 72 hrs, P=0.026) was “significantly more”, the “effect on PMF (DiSC3(5) fluorescence)” value [12] was “caused dissipation of PMF” and the “effect … with ampicillin” value ([13]; econazole + ampicillin) was “pronounced bactericidal synergistic effect”. The “time to eradication of the tolerant sub-population” value ([13]; econazole + ampicillin) was no more than 96 h, the “size of the tolerant population” value ([13]; econazole + ceftazidime (100 μg/ml), within 96 hrs (FIG. 16F)) was roughly 500 CFU/mL and the “killing of tolerant cells” value ([13]; econazole alone, 40 μM) was “slight killing effect”. The MIC [14] was greater than 160 µM, the “effect … with ampicillin” value ([15]; econazole + ampicillin) was “pronounced bactericidal synergistic effect” and the “time to eradication of tolerant cells” value ([15]; econazole alone, 40 μM) was no more than 96 h. The “effect … with ampicillin” value ([16]; econazole + ampicillin) was “pronounced bactericidal synergistic effect”, the “time to eradication of the tolerant sub-population” value ([16]; econazole + ampicillin) was no more than 96 h and the “killing of tolerant cells” value ([16]; econazole alone, 40 μM) was “slight killing effect”. The “protection of the test animals compared with ceftazidime alone” value ([17]; ceftazidime + econazole (20 mg/kg each), inoculation of 7.6×10^5 CFU) was “slightly more effective”, the “rate of eradication of PY1 tolerant cells in surviving mice” value ([17]; ceftazidime + econazole, 7.6×10^5 CFU, after 72 h, P<0.0001) was “significantly higher” and the survival rate ([17]; econazole 20 mg/kg + ceftazidime 20 mg/Kg, 1.5×10^6 CFU) was 80%.
